Data reported in patent US10047105B2, “Gyrase inhibitors” (Merck Sharp & Dohme Corp., priority 2009, dated 2018).
In brackets after ≈: the same amount, converted by molar mass.

Tests used:
Type in all cases: cell-based
S. aureus ATCC 13709 = test: MIC, antibacterial potency, S. aureus; details: S. aureus (SA); in µg/mL
S. pneumoniae ATCC 51916 = test: MIC, S. pneumoniae; details: S. pneumoniae (Spn52); in µg/mL
E. coli 8 ATCC 25922 = test: MIC, E. coli 8 (wt); details: E. coli 8 (EC8)

| SMILES | MIC, SA (S. aureus ATCC 13709) | MIC Spn52 (S. pneumoniae ATCC 51916) | MIC EC8 (E. coli 8 ATCC 25922) |
| --- | --- | --- | --- |
| CCc1[nH]c2nc(Sc3cnc4cccnc4c3)nc(N3CC[C@@H](N)C3)c2c1Cl.O=C(O)C(F)(F)F.O=C(O)C(F)(F)F [700,795] | <=0.5 | <=0.5 | 8 µg/mL |
| CCc1[nH]c2nc(Sc3cnc4cccnc4c3)nc(N3CCC(N)(C(=O)N[C@H](CO)C(=O)O)C3)c2c1Cl (some centres unmarked) [700,891] | >64 | >64 |  |
| CCc1[nH]c2nc(Oc3cccc(C#N)c3)nc(/C=C\c3cccc(OC)c3)c2c1Cl [700,892] | >64 | >64 |  |
| CCc1[nH]c2nc(Oc3cccc(C#N)c3)nc(C(C)=O)c2c1Cl [700,893] | 4 | 8 |  |
| CCc1[nH]c2nc(Sc3cnc4c(NCC5OCCO5)nc(C)nc4c3)nc(N3CC[C@@H](N)C3)c2c1Cl [700,894] | 32 | 8 |  |
| CCc1[nH]c2nc(Oc3cncnc3)nc(Oc3cncc(C#N)c3)c2c1Cl [700,898] | <=0.5 | 2 |  |
| CCc1[nH]c2nc(Oc3cncc(C#N)c3)nc(Oc3cncnc3)c2c1Br [700,899] | <=0.5 | <=0.5 |  |
| CCc1[nH]c2nc(Sc3cnc4nccnc4c3)nc(N3CCC4(CCNCC4)C3)c2c1Cl [700,900] | 8 | 8 |  |
| CCc1[nH]c2nc(Sc3ccc4nccnc4c3)nc(N3CCC4(CCNCC4)C3)c2c1Cl [700,901] | 8 | 4 |  |
| CCc1[nH]c2nc(Sc3ccc4c(N5CC[C@@H](N)C5)ncnc4c3)nc(N3CC[C@@H](N)C3)c2c1Cl [700,903] | 32 | 64 |  |
| CCc1[nH]c2nc(Sc3ccc4c(N5CC(CN)C5)ncnc4c3)nc(N3CC[C@@H](N)C3)c2c1Cl [700,904] | 32 | >64 |  |
| CCc1[nH]c2nc(Sc3cnc4c(=N)n(CC5OCCO5)c(C)nc4c3)nc(N3CC[C@@H](N)C3)c2c1Cl [700,906] | 2 | 4 | > 64 µg/mL |
| CCc1[nH]c2nc(Oc3cncnc3)nc(N3CC(N)C3)c2c1Cl [700,907] | 8 | 16 | 64 µg/mL (≈ 185 µM) |
| CCc1[nH]c2nc(Oc3cncnc3)nc(N3CCCC3CO)c2c1Cl (centres unmarked) [700,908] | 8 | 16 | > 64 µg/mL |
| CCc1[nH]c2nc(Oc3cncnc3)nc(N3CC(Cc4cncnc4)C3)c2c1Cl [700,909] | 1 | 4 | > 64 µg/mL |
| CCc1[nH]c2nc(Oc3cncnc3)nc(N3CCC(N)C3)c2c1Cl (centres unmarked) [700,910] | >64 | >64 | > 64 µg/mL |
| CCc1[nH]c2nc(Oc3cncnc3)nc(N3CC4C(N)C4C3)c2c1Cl (centres unmarked) [700,911] | 1 | 2 | > 32 µg/mL |
| CCc1[nH]c2nc(Sc3ccc4c(Oc5cccc(CNC)c5)cc(C)nc4c3)nc(N3CC[C@@H](N)C3)c2c1Cl [700,912] | 8 | >64 | 32 µg/mL (≈ 55.7 µM) |
| CCc1[nH]c2nc(Sc3ccc4c(-n5ccnc5)cc(C)nc4c3)nc(N3CC[C@@H](N)C3)c2c1Cl [700,913] | 2 | 2 | > 64 µg/mL |
| CCc1[nH]c2nc(Sc3ccc4nc(C)nc(N5CC(CN)C5)c4c3)nc(N3CC[C@@H](N)C3)c2c1Cl [700,914] | 64 | >64 | 32 µg/mL (≈ 61.1 µM) |
| CCc1[nH]c2nc(Sc3ccc4nc(C)nc(N5CC6CNC6C5)c4c3)nc(N3CC[C@@H](N)C3)c2c1Cl (some centres unmarked) [700,916] | 64 | >64 | > 64 µg/mL |
| CCc1[nH]c2nc(Sc3ccc4c(N5CC(CN)C5)cc(C(F)(F)F)nc4c3)nc(N3CC[C@@H](N)C3)c2c1Cl [700,917] | 4 | 4 | 8 µg/mL (≈ 13.9 µM) |
| CCc1[nH]c2nc(Sc3ccc4[nH]c(C(F)(F)F)cc(=O)c4c3)nc(N3CC[C@@H](N)C3)c2c1Cl [700,918] | 2 | 8 | > 64 µg/mL |
